Assay results from paper PMC11249646, “Small-Molecule Disruptors of the Interaction between Calcium- and Integrin-Binding Protein 1 and Integrin αIIbβ3 as Novel Antiplatelet Agents” (ACS Pharmacology & Translational Science, 2024).
Like-named read-outs stand apart in the source and are kept apart here.

How the values were obtained:
[1] = target: T1, CIB1 and αIIb interaction (CIB1-GST : F-αIIb peptide) (Homo sapiens, UniProt Q99828); assay: FP assay, 1536-well qHTS format (primary and confirmatory screen); type: binding; details: for Curve Class (confirmatory screen) / CONFIRMATORY SCREEN Curve Class: qHTS curve class
T1 construct: made in house; host or cells: BL-21 plus RIL cells (E. coli)
T1 sequence (Q99828 1-191): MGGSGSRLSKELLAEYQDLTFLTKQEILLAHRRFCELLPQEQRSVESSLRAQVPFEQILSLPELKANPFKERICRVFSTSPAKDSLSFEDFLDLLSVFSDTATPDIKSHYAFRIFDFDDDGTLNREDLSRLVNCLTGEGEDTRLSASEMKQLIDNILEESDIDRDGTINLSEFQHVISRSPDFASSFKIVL

[2] = target: T2, GST-CIB1 : F-scrambled peptide (Homo sapiens, UniProt Q99828); assay: FP scrambled-peptide counter screen, 1536-well format; type: binding; details: for Curve Class (counterscreen) / COUNTERSCREEN Curve Class: qHTS curve class; for IC50: read-out: IC50 [μM] (counterscreen)
T2 construct: made in house; host or cells: BL-21 plus RIL cells (E. coli)
T2 sequence (Q99828 1-191): T1 sequence (Q99828 1-191)

[3] = Table S3, confirmatory screen, YES/NO call
[4] = Table S3, confirmatory screen, a negative sign marks inhibitory curves
[5] = Table S3, confirmatory screen, negative = inhibition
[6] = qHTS primary screen hits, Table S2, negative = inhibition
[7] = qHTS primary screen hits, Table S2, negative sign = inhibitory curve, several classes where COUNT > 1
[8] = qHTS primary screen hits, Table S2, read-out: IC50
[9] = Table S3, counterscreen, a negative sign marks inhibitory curves
[10] = Table S3, counterscreen, negative = inhibition
[11] = confirmatory screen, negative sign = inhibitory curve
[12] = confirmatory screen, read-out: IC50 [μM] (confirmatory screen)
[13] = qHTS FP screen hits, Table S2, negative = inhibition
[14] = qHTS FP screen hits, Table S2, read-out: IC50
[15] = counterscreen, negative sign = inhibitory curve
[16] = qHTS FP screen hits, Table S2, one class per curve where COUNT > 1, negative sign = inhibitory curve
[17] = qHTS primary screen hits, Table S2, negative sign = inhibitory curve
[18] = Table S3, confirmatory screen, read-out: IC50 [μM] (confirmatory screen)

| SMILES | Curve Class (confirmatory screen) [1, 4] | Efficacy (%) (confirmatory screen) [1, 5] | Efficacy (%) [1, 6] [%] | Curve Class [1, 7] | IC50 [1, 8] [µM] | Curve Class (counterscreen) [2, 9] | Efficacy (%) (counterscreen) [2, 10] | Efficacy (%) [1, 13] [%] | IC50 [1, 14] [µM] | Curve Class [1, 16] | also measured |
| --- | --- | --- | --- | --- | --- | --- | --- | --- | --- | --- | --- |
| O=C(O)C(F)(F)F.O=S(=O)(Nc1nccs1)c1ccc(Nc2nc(-c3ccccc3)cs2)cc1 [NCGC00262380-01] | -2.2 | -80 | -69 | -2.2 | 50.1 | -2.1 | -81 |  |  |  | Confirm? (confirmatory screen) [1, 3]: YES; IC50 ([2]; Table S3, counterscreen): 50.1 µM |
| O=C(O)C(F)(F)F.O=C(O)c1ccc(O)c2ncc(-c3n[nH]nc3-c3ccccc3)cc12 [NCGC00241764-01] |  |  |  |  |  |  |  | -21 | 28.2 |  | Efficacy (%) (confirmatory screen) ([1]; confirmatory screen): -23%; Confirm? (confirmatory screen) ([1]; confirmatory screen, YES/NO): YES; Curve Class (confirmatory screen) [1, 11]: -1.4; IC50 [1, 12]: 39.8 µM; Efficacy (%) (counterscreen) ([2]; counterscreen): -33%; Confirm? (counterscreen) ([2]; counterscreen, YES/NO): YES; Curve Class (counterscreen) [2, 15]: 4 |
| O=C(O)c1ccc(-n2cccc2/C=C2\SC(=O)N(Cc3cccc(Cl)c3)C2=O)cc1 [NCGC00182735-01] |  |  |  |  |  |  |  | -66 |  | -2.2 | Efficacy (%) (confirmatory screen) ([1]; confirmatory screen): -109%; Confirm? (confirmatory screen) ([1]; confirmatory screen, YES/NO): YES; Curve Class (confirmatory screen) [1, 11]: -2.1; Efficacy (%) (counterscreen) ([2]; counterscreen): -61%; Curve Class (counterscreen) [2, 15]: -2.2; IC50 ([2]; counterscreen): 56.2 µM |
| O=C(O)C(F)(F)F.O=C1CCCC2=C1C(c1cccnc1Br)N=C(Nc1nc3ccccc3o1)N2 (stereo not drawn) [NCGC00189281-01] |  |  | -26 |  | 25.1 |  |  |  |  |  | CONFIRMATORY SCREEN Efficacy (%) ([1]; confirmatory screen): -31%; CONFIRMATORY SCREEN Curve Class ([1]; confirmatory screen): 4; Curve Class [1, 17]: -2.4; COUNTERSCREEN Efficacy (%) ([2]; counterscreen): 0%; COUNTERSCREEN Curve Class ([2]; counterscreen): 4 |
| CC(C)(O)CCc1ccc(OCc2cc(-c3cccc(OC(F)F)c3)c3ncccc3c2)cc1 [NCGC00249759-02] | 4 | -25 | -59 | -2.2 | 24.1 | 4 | -28 |  |  |  |  |
| O=C1c2ccccc2C(=O)c2c1ccc(O)c2O [NCGC00095227-06] | -1.1 | -175 |  |  |  | -2.1 | -195 | -161 | 35.5 | -2.1 | Confirm? (confirmatory screen) [1, 3]: YES; IC50 [1, 18]: 17.8 µM; IC50 ([2]; Table S3, counterscreen): 22.4 µM |
| O=C(O)C(F)(F)F.O=C1Nc2ccccc2/C1=N/NC(=S)Nc1ccc(O)cc1 [NCGC00229525-01] | -1.4 | -32 |  |  |  | -1.2 | -61 | -42 | 8.9 | -1.2 | Confirm? (confirmatory screen) [1, 3]: YES; IC50 [1, 18]: 11.2 µM; IC50 ([2]; Table S3, counterscreen): 6.3 µM |
| O=C1c2cccc(O)c2C(=O)c2c(O)cc(CO)cc21 [NCGC00163510-03] | 4 | -18 |  |  |  | 4 | -8 | -33 | 9.6 | -1.2 |  |
| Cc1coc2c1C(=O)C(=O)c1c-2ccc2c1CCCC2(C)C [NCGC00095709-08] | -1.2 | -67 |  |  |  | -2.2 | -67 | -65 | 79.4 | -2.2 | Confirm? (confirmatory screen) [1, 3]: YES; IC50 [1, 18]: 39.8 µM; IC50 ([2]; Table S3, counterscreen): 39.8 µM |
| O=C(c1ccccc1)c1c(O)cc(O)cc1O[C@@H]1O[C@H](CO)[C@@H](O)[C@H](O)[C@H]1O [NCGC00384934-01] |  |  |  |  |  |  |  | -29 | 25.1 | -1.2 | CONFIRMATORY SCREEN Efficacy (%) ([1]; confirmatory screen): -21%; CONFIRMATORY SCREEN Curve Class ([1]; confirmatory screen): 4; COUNTERSCREEN Efficacy (%) ([2]; counterscreen): -31%; COUNTERSCREEN Curve Class ([2]; counterscreen): 4 |
| COc1cc([C@H]2Oc3cc([C@H]4Oc5cc(O)cc(O)c5C(=O)[C@@H]4O)ccc3O[C@@H]2CO)ccc1O [NCGC00091057-05] |  |  |  |  |  |  |  |  |  |  | CONFIRMATORY SCREEN Efficacy (%) ([1]; confirmatory screen): -30%; CONFIRMATORY SCREEN Curve Class ([1]; confirmatory screen): 4; COUNTERSCREEN Efficacy (%) ([2]; counterscreen): 0%; COUNTERSCREEN Curve Class ([2]; counterscreen): 4 |
| O=C(O)c1ccccc1SC1=NS(=O)(=O)c2ccccc21 [NCGC00188636-02] | 4 | -29 |  |  |  | 4 | 0 | -66 | 44.7 | -2.2 |  |
| CCOc1ccc(CCNC(C)=O)cc1OCC.O=C(O)C(F)(F)F [NCGC00241413-01] |  |  |  |  |  |  |  | -45 | 39.8 | -2.2 | CONFIRMATORY SCREEN Efficacy (%) ([1]; confirmatory screen): -11%; CONFIRMATORY SCREEN Curve Class ([1]; confirmatory screen): 4; COUNTERSCREEN Efficacy (%) ([2]; counterscreen): 0%; COUNTERSCREEN Curve Class ([2]; counterscreen): 4 |
| Cl.O=S(=O)(Nc1nccs1)c1ccc(NCc2cc(Cl)cc(Br)c2O)cc1 [NCGC00273965-01] |  |  | -33 | -1.4 | 11.2 |  |  |  |  |  | CONFIRMATORY SCREEN Efficacy (%) ([1]; confirmatory screen): -19%; CONFIRMATORY SCREEN Curve Class ([1]; confirmatory screen): 4; COUNTERSCREEN Efficacy (%) ([2]; counterscreen): 0%; COUNTERSCREEN Curve Class ([2]; counterscreen): 4 |
| O=C(c1cc(O)c(O)c(O)c1)c1ccc(O)c(O)c1O [NCGC00249050-02] | -2.1 | -86 | -42 | -2.2 | 39.8 | -1.1 | -99 |  |  |  | Confirm? (confirmatory screen) [1, 3]: YES; IC50 [1, 18]: 25.1 µM; IC50 ([2]; Table S3, counterscreen): 25.1 µM |
| NC[C@@H](O)c1ccc(O)c(O)c1.O=C(O)C(O)C(O)C(=O)O [NCGC00094737-04] |  |  |  |  |  |  |  |  |  |  | Efficacy (%) (confirmatory screen) ([1]; confirmatory screen): -31%; Confirm? (confirmatory screen) ([1]; confirmatory screen, YES/NO): YES; Curve Class (confirmatory screen) [1, 11]: -3; IC50 [1, 12]: 44.7 µM; Efficacy (%) (counterscreen) ([2]; counterscreen): 82%; Confirm? (counterscreen) ([2]; counterscreen, YES/NO): YES; Curve Class (counterscreen) [2, 15]: 3; IC50 ([2]; counterscreen): 100 µM |
| NC(=O)c1ccc(Cc2c(-c3cccc(-c4ccccc4)c3)nn(-c3nc(C(=O)O)cs3)c2O)cc1.O=C(O)C(F)(F)F [NCGC00356638-01] |  |  | -59 | -2.2 | 56.2 |  |  |  |  |  | Efficacy (%) (confirmatory screen) ([1]; confirmatory screen): -125%; Confirm? (confirmatory screen) ([1]; confirmatory screen, YES/NO): YES; Curve Class (confirmatory screen) [1, 11]: -2.1; IC50 [1, 12]: 70.8 µM; Efficacy (%) (counterscreen) ([2]; counterscreen): -60%; Curve Class (counterscreen) [2, 15]: -2.2; IC50 ([2]; counterscreen): 44.7 µM |
| Cc1ccc(S(=O)(=O)Nc2cnccc2C(=O)Nc2ccc(-c3nnn[nH]3)cc2)cc1.O=C(O)C(F)(F)F [NCGC00343837-01] |  |  | -24 |  | 31.6 |  |  |  |  |  | Efficacy (%) (confirmatory screen) ([1]; confirmatory screen): -63%; Confirm? (confirmatory screen) ([1]; confirmatory screen, YES/NO): YES; Curve Class (confirmatory screen) [1, 11]: -2.4; IC50 [1, 12]: 35.5 µM; Curve Class [1, 17]: -2.4; Efficacy (%) (counterscreen) ([2]; counterscreen): -40%; Confirm? (counterscreen) ([2]; counterscreen, YES/NO): YES; Curve Class (counterscreen) [2, 15]: 4 |
| Cc1cnc(-c2ccccc2C(C)C)nc1NCc1ccc(-c2ccc(F)nc2)cc1.O=C(O)C(F)(F)F [NCGC00253893-01] |  |  | -52 | -2.4 | 50.1 |  |  |  |  |  | Efficacy (%) (confirmatory screen) ([1]; confirmatory screen): -124%; Confirm? (confirmatory screen) ([1]; confirmatory screen, YES/NO): YES; Curve Class (confirmatory screen) [1, 11]: -2.1; IC50 [1, 12]: 112 µM; Efficacy (%) (counterscreen) ([2]; counterscreen): -90%; Curve Class (counterscreen) [2, 15]: -2.1; IC50 ([2]; counterscreen): 44.7 µM |
| O=C(O)C(F)(F)F.O=C1Nc2ccccc2/C1=N/NC(=S)NCc1ccccc1 [NCGC00229543-01] | 4 | -33 | -24 | -1.4 | 7.9 | 4 | -27 |  |  |  |  |
| CC(=O)Nc1sc2c(c1-c1nc3ccccc3s1)CNC2.O=C(O)C(F)(F)F [NCGC00185090-03] | 4 | -34 |  |  |  | -2.4 | -43 | -28 | 12.6 |  | Confirm? (counterscreen) ([2]; Table S3, counterscreen, YES/NO call): YES; IC50 ([2]; Table S3, counterscreen): 50.1 µM |
| CC(C)(C)OC(=O)CC(=O)NNC(=O)c1nc2ccccc2[nH]1 [NCGC00181234-01] |  |  | -37 |  | 39.8 |  |  |  |  |  | CONFIRMATORY SCREEN Efficacy (%) ([1]; confirmatory screen): -10%; CONFIRMATORY SCREEN Curve Class ([1]; confirmatory screen): 4; Curve Class [1, 17]: -2.4; COUNTERSCREEN Efficacy (%) ([2]; counterscreen): -21%; COUNTERSCREEN Curve Class ([2]; counterscreen): 4 |
| CC(=O)NC(Cc1ccccc1)C(=O)O (stereo not drawn) [NCGC00042134-05] | 4 | 0 |  |  |  | 4 | -35 | -47 | 100 | -2.2 |  |
